Reference: US20230266302A1, “SYNTHESIS AND USE OF N-BENZYL SULFONAMIDES” (THE UNIVERSITY OF TULSA, priority 2020, published 2023)

Experiments:
Assay in all cases: ATP level assay (CellTiter-Glo), percent of control
Type in all cases: cell-based
NCI-H196 (lung cancer) = conditions: two hour incubation; for activity at 100 µM: NCI-H196, 2 h, compound alone, control DMSO, read-out: POC (percent of control) NCI-H196
MDA-MB (breast cancer) = conditions: two hour incubation; for activity at 100 µM: 2 h, compound alone, control DMSO, read-out: POC (percent of control) MDA-MB
HDF (normal cells) = conditions: two hour incubation; for activity at 100 µM: 2 h, compound alone, control DMSO, read-out: POC (percent of control) HDF
H293 (kidney cancer) = conditions: two hour incubation; for activity at 100 µM: 2 h, compound alone, control DMSO, read-out: POC (percent of control) H293
T47D (breast cancer) = conditions: two hour incubation; for activity at 100 µM: Homo sapiens, T47D, 2 h, compound alone, control DMSO, read-out: POC (percent of control) T47D
HeLa (cervical cancer) = conditions: two hour incubation; for activity at 100 µM: Homo sapiens, HeLa, 2 h, compound alone, control DMSO, read-out: POC (percent of control) HeLa
[1] = system: MCF10A (non-cancerous breast); conditions: two hour incubation; for activity at 100 µM: Homo sapiens, MCF-10A, 2 h, compound alone, control DMSO, read-out: POC (percent of control) MCF10A
[2] = system: BxPC3 (pancreatic cancer); conditions: two hour incubation; for activity at 100 µM: Homo sapiens, BXPC-3, 2 h, compound alone, control DMSO, read-out: POC (percent of control) BxPC3
PC3 (prostate cancer) = conditions: two hour incubation; for activity at 100 µM: 2 h, compound alone, control DMSO, read-out: POC (percent of control) PC3
MCF7 (breast cancer) = conditions: two hour incubation; for activity at 100 µM: Homo sapiens, MCF7, 2 h, compound alone, control DMSO, read-out: POC (percent of control) MCF7
SkBr3 (breast cancer) = conditions: two hour incubation; for activity at 100 µM: Homo sapiens, SK-BR-3, 2 h, compound alone, control DMSO, read-out: POC (percent of control) SkBr3
[3] = compound 100 uM + 2DG (about 10-20 mM)
[4] = compound 100 uM + rotenone (approximately 1.25 μM)

Structure (SMILES)	activity at 100 µM (NCI-H196 (lung cancer))	POC (percent of control) NCI-H196 (NCI-H196 (lung cancer); [3])	POC (percent of control) NCI-H196 (NCI-H196 (lung cancer); [4])	activity at 100 µM (MDA-MB (breast cancer))	POC (percent of control) MDA-MB (MDA-MB (breast cancer); [3])	POC (percent of control) MDA-MB (MDA-MB (breast cancer); [4])	activity at 100 µM (HDF (normal cells))	POC (percent of control) HDF (HDF (normal cells); [3])	POC (percent of control) HDF (HDF (normal cells); [4])	activity at 100 µM (H293 (kidney cancer))	POC (percent of control) H293 (H293 (kidney cancer); [3])	POC (percent of control) H293 (H293 (kidney cancer); [4])	activity at 100 µM (T47D (breast cancer))	POC (percent of control) T47D (T47D (breast cancer); [3])	POC (percent of control) T47D (T47D (breast cancer); [4])	activity at 100 µM (HeLa (cervical cancer))	POC (percent of control) HeLa (HeLa (cervical cancer); [3])	POC (percent of control) HeLa (HeLa (cervical cancer); [4])	activity at 100 µM [1]	POC (percent of control) MCF10A [1, 3]	other results
Cc1cccc2c(CNS(=O)(=O)c3ccc(Cl)cc3)c[nH]c12 [Compound 28, 4-chloro-N-[(7-methyl-1H-indol-3-yl)methyl]benzenesulfonamide]	129%	40.4% of control	60.6% of control	77.4%	45.5% of control	78.1% of control	74.9%	56.1% of control	62.2% of control	43.2%	49% of control	43.3% of control	66.1%	33.7% of control	62.2% of control	57.7%	65.6% of control	96.1% of control	72.8%	29.5% of control	POC (percent of control) MCF10A [1, 4]: 81.1% of control; activity at 100 µM [2]: 40.4%; POC (percent of control) BxPC3 [2, 3]: 41.8% of control; POC (percent of control) BxPC3 [2, 4]: 44.6% of control; activity at 100 µM (PC3 (prostate cancer)): 31.8%; POC (percent of control) PC3 (PC3 (prostate cancer); [3]): 56.5% of control; POC (percent of control) PC3 (PC3 (prostate cancer); [4]): 64.8% of control; activity at 100 µM (MCF7 (breast cancer)): 79%; POC (percent of control) MCF7 (MCF7 (breast cancer); [3]): 60.7% of control; POC (percent of control) MCF7 (MCF7 (breast cancer); [4]): 53.5% of control; activity at 100 µM (SkBr3 (breast cancer)): 102%; POC (percent of control) SkBr3 (SkBr3 (breast cancer); [3]): 79.6% of control; POC (percent of control) SkBr3 (SkBr3 (breast cancer); [4]): 87.3% of control
Cc1ccc(S(=O)(=O)NCc2cscn2)cc1 [Compound 17, 4-methyl-N-(1,3-thiazol-4-ylmethyl)benzenesulfonamide]	96.8%	103.8% of control	89.4% of control	105%	89.8% of control	98.1% of control	90.7%	98% of control	84.1% of control	80.4%	85.8% of control	74.9% of control	83%	89.1% of control	104.6% of control	90.3%	118.8% of control	110.3% of control	92.4%	97.1% of control	POC (percent of control) MCF10A [1, 4]: 91.6% of control; activity at 100 µM [2]: 91.4%; POC (percent of control) BxPC3 [2, 3]: 101.4% of control; POC (percent of control) BxPC3 [2, 4]: 75.7% of control; activity at 100 µM (PC3 (prostate cancer)): 113%; POC (percent of control) PC3 (PC3 (prostate cancer); [3]): 93.7% of control; POC (percent of control) PC3 (PC3 (prostate cancer); [4]): 90.9% of control; activity at 100 µM (MCF7 (breast cancer)): 145%; POC (percent of control) MCF7 (MCF7 (breast cancer); [3]): 114.6% of control; POC (percent of control) MCF7 (MCF7 (breast cancer); [4]): 90.6% of control; activity at 100 µM (SkBr3 (breast cancer)): 90.1%; POC (percent of control) SkBr3 (SkBr3 (breast cancer); [3]): 88.8% of control; POC (percent of control) SkBr3 (SkBr3 (breast cancer); [4]): 95.4% of control
O=S(=O)(NCc1cscn1)c1ccc(Cl)cc1 [Compound 18, 4-chloro-N-(1,3-thiazol-4-ylmethyl)benzenesulfonamide]	97.4%	108.3% of control	87.3% of control	102%	86.1% of control	100% of control	96.1%	93% of control	95.7% of control	67.3%	96.3% of control	67.4% of control	95.7%	82.8% of control	100.6% of control	99.5%	100% of control	97.3% of control	119%	92.2% of control	POC (percent of control) MCF10A [1, 4]: 86.9% of control; activity at 100 µM [2]: 100%; POC (percent of control) BxPC3 [2, 3]: 85.4% of control; POC (percent of control) BxPC3 [2, 4]: 94.3% of control; activity at 100 µM (PC3 (prostate cancer)): 74%; POC (percent of control) PC3 (PC3 (prostate cancer); [3]): 94% of control; POC (percent of control) PC3 (PC3 (prostate cancer); [4]): 97.2% of control; activity at 100 µM (MCF7 (breast cancer)): 110%; POC (percent of control) MCF7 (MCF7 (breast cancer); [3]): 137.3% of control; POC (percent of control) MCF7 (MCF7 (breast cancer); [4]): 82% of control; activity at 100 µM (SkBr3 (breast cancer)): 112%; POC (percent of control) SkBr3 (SkBr3 (breast cancer); [3]): 107.2% of control; POC (percent of control) SkBr3 (SkBr3 (breast cancer); [4]): 96.6% of control
Cc1ccc(S(=O)(=O)NCc2c[nH]c3ccccc23)cc1 [Compound 1, N-[(1H-indol-3-yl)methyl]-4-methylbenzenesulfonamide]	90.8%	68.8% of control	83.2% of control	78.1%	62% of control	80.5% of control	98.5%	85% of control	107.7% of control	92.8%	48.2% of control	69% of control	53.2%	43.2% of control	76.6% of control	95%	66.3% of control	78.7% of control	73.3%	86.7% of control	POC (percent of control) MCF10A [1, 4]: 69% of control; activity at 100 µM [2]: 97.1%; POC (percent of control) BxPC3 [2, 4]: 86.6% of control; activity at 100 µM (PC3 (prostate cancer)): 91.7%; POC (percent of control) PC3 (PC3 (prostate cancer); [3]): 57.3% of control; POC (percent of control) PC3 (PC3 (prostate cancer); [4]): 72.6% of control; activity at 100 µM (MCF7 (breast cancer)): 103%; POC (percent of control) MCF7 (MCF7 (breast cancer); [3]): 86.8% of control; POC (percent of control) MCF7 (MCF7 (breast cancer); [4]): 79.6% of control; activity at 100 µM (SkBr3 (breast cancer)): 97.7%; POC (percent of control) SkBr3 (SkBr3 (breast cancer); [3]): 72.9% of control; POC (percent of control) SkBr3 (SkBr3 (breast cancer); [4]): 91.2% of control
